Data on two molecules can be found in patent US12180187B2, “1-phenyl-5-azinylpyrazolyl-3-oxyalkyl acids and their use for controlling unwanted plant growth” (BAYER AKTIENGESELLSCHAFT, priority 2019, dated 2024).

In assay [1] the test system is ALOMY. Kind of assay: Post-emergence action against ALOMY, 320 g/ha. The format is in vivo, Alopecurus myosuroides. As to conditions: dosage 320 g/ha, visual rating about 3 weeks after treatment vs untreated controls (100% = plants died). In outline: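 Herbicidal effect is scored by eye about 3 weeks after a foliar spray and expressed as percent activity, with untreated plants as 0% and dead plants as 100%. Treatment is applied at the one-leaf stage of greenhouse-grown, soil-sown plants, at a water rate of 600 l/ha containing 0.5% additive.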

Assay [2] relates to AVEFA. Kind of assay: Post-emergence action at 320 g/ha against AVEFA. The format is in vivo. As to conditions: visual rating about 3 weeks after treatment vs untreated controls. The source says: (§1) Accordingly, the compounds of the invention have good herbicidal action against a broad spectrum of weed grasses and broad-leaved weeds and are therefore suitable for controlling unwanted vegetation by the post-emergence method. • b) Seeds of monocotyledonous and dicotyledonous weeds and crop plants are placed in sandy loam in plastic or organic planting pots, covered with soil and cultivated in a greenhouse under controlled growth conditions. 2 to 3 weeks after sowing, the test plants are treated at the one-leaf stage. The compounds of the invention, formulated in the form of wettable powders (WP) or as emulsion concentrates (EC), are then sprayed onto the green parts of the plants as aqueous suspension or emulsion with addition of 0.5% additive at a water application rate of 600 l/ha (converted). After the test plants have been kept in the greenhouse under optimum growth conditions for about 3 weeks, the activity of the preparations is rated visually in comparison to untreated controls. For example, 100% activity=the plants have died, 0% activity=like control plants. Tables 39 to 49 below show the effects of selected compounds of the general formula (I) according to Tables 1 and 2 on various harmful plants and at an application rate corresponding to 320 g/ha, which were obtained by the experimental procedure mentioned above.

The subject of a further assay is ECHGC. Kind of assay: Pre-emergence action at 320 g/ha against ECHGC. The format is in vivo, Echinochloa crus-galli. The following applies: visual scoring after about 3 weeks vs untreated controls. A digest of the protocol: (§2)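 Effect rated visually (% vs untreated control) about 3 weeks after pre-emergence spraying of WP/EC formulation onto soil; spray carried 0.5% additive at 600 l/ha water.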

For another assay, the system named is ECHCG. Kind of assay: Post-emergence action at 320 g/ha against ECHCG. The format is in vivo, Echinochloa crus-galli. As to conditions: dosage 320 g/ha, visual rating about 3 weeks after treatment vs untreated controls (100% = plants died).
Description: as §1

In assay [3] the test system is SETVI. Kind of assay: Pre-emergence action at 320 g/ha against SETVI. The format is in vivo, Setaria viridis. As to conditions: visual scoring after about 3 weeks vs untreated controls. In outline: as §2
Assay [4] concerns AMARE. Kind of assay: Post-emergence action at 320 g/ha against AMARE. The format is in vivo, Amaranthus retroflexus. The following applies: visual rating about 3 weeks after treatment vs untreated controls.
Description: as §1

For assay [5], the system named is PHBPU. In words: Post-emergence action at 320 g/ha against PHBPU. As to conditions: visual rating about 3 weeks after treatment vs untreated controls. The format is in vivo.
Description: as §1

For assay [6], the system named is AVEFA. In words: Pre-emergence action at 320 g/ha against AVEFA. The format is in vivo. As to conditions: visual scoring after about 3 weeks vs untreated controls. In outline:
as §2

Assay [7] concerns ALOMY. Kind of assay: Pre-emergence action at 320 g/ha against ALOMY. The format is in vivo, Alopecurus myosuroides. The following applies: scored visually after about 3 weeks vs untreated controls (100% = plants have died). In outline: as §2
Assay [8] relates to POLCO. Kind of assay: Pre-emergence action at 320 g/ha against POLCO. The format is in vivo, Fallopia convolvulus (Polygonum convolvulus). As to conditions: visual scoring after about 3 weeks vs untreated controls. In outline:
as §2

The subject of a further assay is VERPE. In words: Pre-emergence action at 320 g/ha against VERPE. The format is in vivo, Veronica persica. As to conditions: visual scoring after about 3 weeks vs untreated controls. A digest of the protocol:
as §2

Assay [9] deals with PHBPU. In words: Pre-emergence action at 320 g/ha against PHBPU. The following applies: visual scoring after about 3 weeks vs untreated controls. The format is in vivo. An excerpt: b) Seeds of monocotyledonous and dicotyledonous weed plants and crop plants are placed in plastic or organic planting pots and covered with soil. The compounds of the invention, formulated in the form of wettable powders (WP) or as emulsion concentrates (EC), are then applied onto the surface of the covering soil as aqueous suspension or emulsion with addition of 0.5% additive at a water application rate of 600 l/ha (converted). After the treatment, the pots are placed in a greenhouse and kept under good growth conditions for the trial plants. After about 3 weeks, the effect of the preparations is scored visually in comparison with untreated controls as percentages. For example, 100% activity=the plants have died, 0% activity=like control plants. Tables 13 to 26 below show the effects of selected compounds of the general formula (I) on various harmful plants and at an application rate corresponding to 320 g/ha, which were obtained by the experimental procedure mentioned above.

The subject of the next assay is MATIN. Kind of assay: Pre-emergence action at 320 g/ha against MATIN. The format is in vivo, Tripleurospermum inodorum (Matricaria inodora). As to conditions: visual scoring after about 3 weeks vs untreated controls. In outline:
as §2

The subject of assay [10] is DIGSA. In words: Post-emergence action at 320 g/ha against DIGSA. The format is in vivo, Digitaria sanguinalis. The following applies: dosage 320 g/ha, visual rating about 3 weeks after treatment vs untreated controls (100% = plants died).
Description: as §1

Assay [11] deals with POLCO. Kind of assay: Post-emergence action at 320 g/ha against POLCO. The format is in vivo, Fallopia convolvulus (Polygonum convolvulus). As to conditions: visual rating about 3 weeks after treatment vs untreated controls.
Description: as §1

The test system of assay [12] is VIOTR. In words: Pre-emergence action at 320 g/ha against VIOTR. The format is in vivo, Viola tricolor. The following applies: dosage 320 g/ha. In outline:
as §2

A further assay has as its system LOLRI. Kind of assay: Pre-emergence action at 320 g/ha against LOLRI. The format is in vivo, Lolium rigidum. The following applies: visual scoring after about 3 weeks vs untreated controls. A digest of the protocol: as §2
The subject of another assay is ABUTH. Kind of assay: Post-emergence action at 320 g/ha against ABUTH. The format is in vivo, Abutilon theophrasti. The following applies: visual rating about 3 weeks after treatment vs untreated controls.
Description: as §1

For assay [13], the system named is AMARE. In words: Pre-emergence action at 320 g/ha against AMARE. The format is in vivo, Amaranthus retroflexus. As to conditions: visual scoring after about 3 weeks vs untreated controls. In outline:
as §2

Assay [14] relates to VIOTR. Kind of assay: Post-emergence action at 320 g/ha against VIOTR. The format is in vivo, Viola tricolor. The following applies: visual rating about 3 weeks after treatment vs untreated controls.
Description: as §1

Assay [15] relates to SETVI. In words: Post-emergence action at 320 g/ha against SETVI. The format is in vivo, Setaria viridis. The following applies: visual rating about 3 weeks after treatment vs untreated controls.
Description: as §1

Assay [16] concerns DIGSA. In words: Pre-emergence action at 320 g/ha against DIGSA. The format is in vivo, Digitaria sanguinalis. The following applies: visual scoring after about 3 weeks vs untreated controls. A digest of the protocol:
as §2

As for `COC(=O)COc1nn(-c2ccccc2F)c(-c2ccc(F)nc2)c1Br` [VII-001], the “Post-emergence action against ALOMY” value with ALOMY [1] was found to be 90%. In the assay on AVEFA [2], the “Post-emergence action against AVEFA in %” value is on record as 90%. In addition, the “Pre-emergence action against ECHGC in %” value in the assay with ECHGC is reported as 100%. In the assay with ECHCG, the “Post-emergence action at 320 g/ha against ECHCG in %” value worked out at 100%. In addition, the “Pre-emergence action against SETVI in %” value with SETVI [3] came out at 100%. In the assay on AMARE [4], the “Post-emergence action against AMARE in %” value is listed as 90%. Besides, in the assay on PHBPU [5], the “Post-emergence action against PHBPU in %” value was determined as 90%. Moreover, in the assay with AVEFA [6], the “Pre-emergence action against AVEFA in %” value was determined as 90%. Also, the “Pre-emergence action at 320 g/ha against ALOMY in %” value in the assay on ALOMY [7] was found to be 100%. Besides, the “Pre-emergence action against POLCO in %” value with POLCO [8] is recorded as 90%. Also, the “Pre-emergence action against VERPE in %” value with VERPE is 100%. Further, the “Pre-emergence action against PHBPU in %” value with PHBPU [9] came out at 100%. Besides, the “Pre-emergence action against MATIN in %” value with MATIN stood at 90%. The “Post-emergence action at 320 g/ha against DIGSA in %” value in the assay on DIGSA [10] worked out at 90%. For the same molecule, in the assay on POLCO [11], the “Post-emergence action against POLCO in %” value was 80%. Moreover, in the assay on VIOTR [12], the “Pre-emergence action against VIOTR in %” value stood at 100%. In addition, the “Pre-emergence action against LOLRI in %” value with LOLRI was determined as 100%. In addition, the “Post-emergence action against ABUTH in %” value in the assay with ABUTH was found to be 80%. Besides, in the assay with AMARE [13], the “Pre-emergence action against AMARE in %” value stood at 100%. Moreover, the “Post-emergence action against VIOTR in %” value with VIOTR [14] turned out to be 80%. Besides, in the assay on SETVI [15], the “Post-emergence action against SETVI in %” value was 90%. The “Pre-emergence action against DIGSA in %” value in the assay with DIGSA [16] is on record as 100%.

Regarding `CCOC(=O)COc1nn(-c2ccccc2F)c(-c2ccc(F)nc2)c1F` [VII-034], in the assay with ALOMY [1], the “Post-emergence action against ALOMY” value is 90%. Also, the “Post-emergence action against AVEFA in %” value in the assay on AVEFA [2] is recorded as 90%. The “Pre-emergence action against ECHGC in %” value in the assay on ECHGC was 90%. In the assay on ECHCG, the “Post-emergence action at 320 g/ha against ECHCG in %” value is listed as 90%. Further, the “Pre-emergence action against SETVI in %” value in the assay on SETVI [3] turned out to be 100%. The “Post-emergence action against AMARE in %” value in the assay with AMARE [4] is given as 80%. Besides, in the assay on PHBPU [5], the “Post-emergence action against PHBPU in %” value is 90%. In the assay on AVEFA [6], the “Pre-emergence action against AVEFA in %” value is listed as 90%. Also, the “Pre-emergence action at 320 g/ha against ALOMY in %” value in the assay on ALOMY [7] is on record as 90%. In addition, the “Pre-emergence action against POLCO in %” value with POLCO [8] was 90%. Besides, the “Pre-emergence action against VERPE in %” value in the assay with VERPE stood at 80%. Also, the “Post-emergence action at 320 g/ha against DIGSA in %” value in the assay with DIGSA [10] stood at 90%. For the same molecule, the “Post-emergence action against POLCO in %” value with POLCO [11] was 80%. The “Pre-emergence action against VIOTR in %” value in the assay on VIOTR [12] was 100%. In addition, in the assay with LOLRI, the “Pre-emergence action against LOLRI in %” value is recorded as 90%. Moreover, the “Post-emergence action against ABUTH in %” value with ABUTH is on record as 80%. In addition, the “Pre-emergence action against AMARE in %” value in the assay on AMARE [13] amounted to 100%. In the assay with VIOTR [14], the “Post-emergence action against VIOTR in %” value worked out at 80%. In the assay on SETVI [15], the “Post-emergence action against SETVI in %” value came out at 90%. In addition, the “Pre-emergence action against DIGSA in %” value with DIGSA [16] was determined as 100%.
